ChEMBL document CHEMBL3826960, “Robust design of some selective matrix metalloproteinase-2 inhibitors over matrix metalloproteinase-9 through in silico/fragment-based lead identification and de novo lead modification: Syntheses and biological assays” (Bioorg Med Chem, 2016)

What was measured:
[1] = target: Matrix metalloproteinase-9 (Homo sapiens, UniProt P14780)
Description: Inhibition of human recombinant MMP9 by colorimetric analysis

[2] = target: Macrophage metalloelastase (Homo sapiens, UniProt P39900)
Description: Inhibition of human recombinant MMP12 by colorimetric analysis

A549 [3] = test: cells; assay type: functional, cell-based; conditions: Homo sapiens, A549, 48 h
Description: Cytotoxicity against human A549 cells assessed as cell viability after 48 hrs by MTT assay

A549 [4] = test: cells; assay type: functional; conditions: Homo sapiens, A549, 48 h
[5] = target: Matrix metalloproteinase-14 (Homo sapiens, UniProt P50281)
Description: Inhibition of human recombinant MMP14 by colorimetric analysis

A549 [6] = test: cells; assay type: functional; conditions: Homo sapiens, A549, 48 h; remark: listed apart in the source
Description: Cytotoxicity against human A549 cells assessed as cell viability at 300 uM after 48 hrs by MTT assay

A549 [7] = test: cells; assay type: functional; conditions: Homo sapiens, A549, 48 h; remark: listed apart in the source
Interstitial collagenase = target: T1, Interstitial collagenase (Homo sapiens, UniProt P03956)
T1 sequence (P03956 whole entry): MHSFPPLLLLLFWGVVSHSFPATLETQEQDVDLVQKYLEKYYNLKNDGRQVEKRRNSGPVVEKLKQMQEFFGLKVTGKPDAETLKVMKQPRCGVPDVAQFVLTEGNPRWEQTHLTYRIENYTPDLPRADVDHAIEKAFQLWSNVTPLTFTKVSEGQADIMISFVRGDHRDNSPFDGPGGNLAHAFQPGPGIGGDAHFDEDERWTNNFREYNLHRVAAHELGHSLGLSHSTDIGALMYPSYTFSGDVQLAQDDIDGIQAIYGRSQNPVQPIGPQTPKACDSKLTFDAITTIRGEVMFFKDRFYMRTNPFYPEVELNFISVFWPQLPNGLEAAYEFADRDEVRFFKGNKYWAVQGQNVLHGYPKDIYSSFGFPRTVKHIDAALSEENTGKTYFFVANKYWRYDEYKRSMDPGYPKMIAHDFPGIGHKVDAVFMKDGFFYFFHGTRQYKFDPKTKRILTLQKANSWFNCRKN
Description: Inhibition of human recombinant MMP1 by colorimetric analysis

Neutrophil collagenase = Neutrophil collagenase (Homo sapiens, UniProt P22894)
Sequence of Neutrophil collagenase (P22894 whole entry): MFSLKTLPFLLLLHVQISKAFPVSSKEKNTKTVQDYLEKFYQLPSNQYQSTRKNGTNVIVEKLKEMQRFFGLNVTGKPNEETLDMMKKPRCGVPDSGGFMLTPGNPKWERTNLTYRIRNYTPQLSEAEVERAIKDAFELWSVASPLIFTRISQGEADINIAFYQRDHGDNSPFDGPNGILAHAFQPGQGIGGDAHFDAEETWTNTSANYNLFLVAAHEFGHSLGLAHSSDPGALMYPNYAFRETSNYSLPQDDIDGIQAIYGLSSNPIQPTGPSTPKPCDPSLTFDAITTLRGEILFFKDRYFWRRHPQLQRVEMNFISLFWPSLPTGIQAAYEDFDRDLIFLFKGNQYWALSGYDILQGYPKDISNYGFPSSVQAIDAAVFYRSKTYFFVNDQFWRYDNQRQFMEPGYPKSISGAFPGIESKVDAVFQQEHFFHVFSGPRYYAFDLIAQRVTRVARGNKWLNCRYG
Description: Inhibition of human recombinant MMP8 by colorimetric analysis

A549 [8] = test: cells; assay type: functional; conditions: Homo sapiens, A549, 24 h
Description: Reduction of MMP2 expression in human A549 cells at 50 uM after 24 hrs by confocal microsocopy

A549 [9] = test: cells; assay type: functional; conditions: Homo sapiens, A549, 48 h; remark: listed apart in the source
Description: Cytotoxicity against human A549 cells assessed as cell viability at 100 uM after 48 hrs by MTT assay

Sequence of Matrix metalloproteinase-9 (P14780 whole entry): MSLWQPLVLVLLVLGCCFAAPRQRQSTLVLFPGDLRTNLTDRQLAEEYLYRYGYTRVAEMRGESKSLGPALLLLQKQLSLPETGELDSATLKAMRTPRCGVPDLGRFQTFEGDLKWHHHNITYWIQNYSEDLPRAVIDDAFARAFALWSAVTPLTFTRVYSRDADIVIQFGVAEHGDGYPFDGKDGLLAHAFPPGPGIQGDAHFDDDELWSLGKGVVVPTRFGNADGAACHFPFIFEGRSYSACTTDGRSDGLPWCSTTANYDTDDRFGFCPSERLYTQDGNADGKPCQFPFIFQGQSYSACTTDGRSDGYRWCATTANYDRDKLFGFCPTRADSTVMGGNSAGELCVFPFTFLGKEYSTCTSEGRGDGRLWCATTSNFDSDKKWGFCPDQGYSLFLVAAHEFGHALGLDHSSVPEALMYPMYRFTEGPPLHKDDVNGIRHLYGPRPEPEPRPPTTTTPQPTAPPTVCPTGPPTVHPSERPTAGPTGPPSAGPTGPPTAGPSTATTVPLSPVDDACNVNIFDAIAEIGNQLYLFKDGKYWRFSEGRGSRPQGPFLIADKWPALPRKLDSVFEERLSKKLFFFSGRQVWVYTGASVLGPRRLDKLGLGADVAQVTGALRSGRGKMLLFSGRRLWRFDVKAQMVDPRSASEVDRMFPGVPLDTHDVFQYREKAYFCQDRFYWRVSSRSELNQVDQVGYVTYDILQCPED
Sequence of Macrophage metalloelastase (P39900 whole entry): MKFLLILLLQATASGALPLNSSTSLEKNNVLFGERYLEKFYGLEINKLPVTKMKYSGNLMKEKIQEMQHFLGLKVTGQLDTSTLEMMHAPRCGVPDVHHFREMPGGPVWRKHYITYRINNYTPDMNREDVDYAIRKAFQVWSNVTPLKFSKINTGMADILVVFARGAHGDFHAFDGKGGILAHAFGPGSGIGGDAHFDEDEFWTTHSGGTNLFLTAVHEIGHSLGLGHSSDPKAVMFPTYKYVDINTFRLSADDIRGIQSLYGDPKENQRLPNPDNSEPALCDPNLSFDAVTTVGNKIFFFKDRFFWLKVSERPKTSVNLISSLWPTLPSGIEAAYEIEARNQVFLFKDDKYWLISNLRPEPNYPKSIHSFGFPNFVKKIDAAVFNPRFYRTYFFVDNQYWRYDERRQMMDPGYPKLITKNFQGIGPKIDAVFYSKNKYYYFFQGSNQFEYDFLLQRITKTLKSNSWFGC

In the case of O=C(CC[C@H](NS(=O)(=O)c1ccc(-c2ccccc2)cc1)C(=O)O)NCc1ccc(Cl)cc1, the IC50 [1] is reported as 2.09 µM.

Work on O=C(CC[C@H](NS(=O)(=O)c1ccc(-c2ccccc2)cc1)C(=O)O)NCc1cc(C(F)(F)F)cc(C(F)(F)F)c1 yielded an IC50 [2] of 462 nM, an IC50 (A549 [3]) of 270 µM and a viability at 100 µM (A549 [4]) of 98.5%. The IC50 [5] was 6.31 µM, the IC50 [1] was 6.74 µM and the viability at 300 µM (A549 [6]) was 43%. For the same compound, the viability at 200 µM (A549 [7]) was 96.1%, the IC50 (Interstitial collagenase) was > 10 µM and the IC50 (Neutrophil collagenase) was 228 nM. The inhibition at 50 µM (A549 [8]) was ≤ 78.9% and the viability at 100 µM (A549 [9]) was 80%.

O=C(CC[C@H](NS(=O)(=O)c1ccc(-c2ccccc2)cc1)C(=O)O)NCc1ccccc1 was tested, and the IC50 [2] was 53.2 nM, the viability at 100 µM (A549 [4]) was 98.3% and the IC50 [5] was 0.427 µM. It also gave an IC50 [1] of 0.492 µM, a viability at 300 µM (A549 [6]) of 66% and a viability at 200 µM (A549 [7]) of 95.8%. The IC50 (Interstitial collagenase) was > 10 µM, the IC50 (Neutrophil collagenase) was 21.3 nM and the inhibition at 50 µM (A549 [8]) was ≤ 60.5%. The viability at 100 µM (A549 [9]) was 80%.

With O=C(CC[C@H](NS(=O)(=O)c1ccc(-c2ccccc2)cc1)C(=O)O)NC1CCCCC1 the IC50 [2] was 73.2 nM, the IC50 [5] was 2.41 µM and the IC50 [1] was 0.636 µM. The viability at 300 µM (A549 [6]) was 70%, the IC50 (Interstitial collagenase) was > 10 µM and the IC50 (Neutrophil collagenase) was 64.8 nM. It also gave a viability at 100 µM (A549 [9]) of 80%.

O=C(CC[C@H](NS(=O)(=O)c1ccc(-c2ccccc2)cc1)C(=O)O)Nc1ccccc1 gave an IC50 [2] of 296 nM, an IC50 [5] of 1.39 µM and an IC50 [1] of 4.28 µM. The viability at 300 µM (A549 [6]) was 78%, the IC50 (Interstitial collagenase) was > 10 µM and the IC50 (Neutrophil collagenase) was 56.2 nM. For the same compound, the viability at 100 µM (A549 [9]) was 80%.

With O=C(CC[C@H](NS(=O)(=O)c1ccc(-c2ccc(Br)cc2)cc1)C(=O)O)NCc1ccccc1 the IC50 [1] was 5.99 µM.

Compound CC(C)(C)NC(=O)CC[C@H](NS(=O)(=O)c1ccc(-c2ccccc2)cc1)C(=O)O has an IC50 [1] of 8.5 µM.

Work on CCCCNC(=O)CC[C@H](NS(=O)(=O)c1ccc(-c2ccccc2)cc1)C(=O)O yielded an IC50 [2] of 71 nM, an IC50 [5] of 4.64 µM and an IC50 [1] of 0.715 µM. For the same compound, the viability at 300 µM (A549 [6]) was 59%, the IC50 (Interstitial collagenase) was > 10 µM and the IC50 (Neutrophil collagenase) was 59.6 nM. It also gave a viability at 100 µM (A549 [9]) of 80%.

Work on NC(=O)CC[C@H](NS(=O)(=O)c1ccc(-c2ccccc2)cc1)C(=O)O yielded an IC50 [1] of 7.43 µM.

Compound CC(C)CNC(=O)CC[C@H](NS(=O)(=O)c1ccc(-c2ccccc2)cc1)C(=O)O has an IC50 [2] of 247 nM, an IC50 [5] of 8.81 µM and an IC50 [1] of 8.17 µM. For the same compound, the viability at 300 µM (A549 [6]) was 79%, the IC50 (Interstitial collagenase) was > 10 µM and the IC50 (Neutrophil collagenase) was 226 nM. It also gave a viability at 100 µM (A549 [9]) of 80%.

CCCNC(=O)CC[C@H](NS(=O)(=O)c1ccc(-c2ccccc2)cc1)C(=O)O was tested, and the IC50 [5] was 7.78 µM, the IC50 [1] was 11.3 µM and the IC50 (Interstitial collagenase) was > 10 µM. It also gave an IC50 (Neutrophil collagenase) of 45.3 nM.

Work on COc1ccc(CNC(=O)CC[C@H](NS(=O)(=O)c2ccc(-c3ccccc3)cc2)C(=O)O)cc1 yielded an IC50 [1] of 1.82 µM.

CCCCCCNC(=O)CC[C@H](NS(=O)(=O)c1ccc(-c2ccccc2)cc1)C(=O)O showed an IC50 [2] of 96.1 nM, an IC50 [5] of 0.807 µM and an IC50 [1] of 5.88 µM. For the same compound, the viability at 300 µM (A549 [6]) was 65%, the IC50 (Interstitial collagenase) was > 10 µM and the IC50 (Neutrophil collagenase) was 81.4 nM. The viability at 100 µM (A549 [9]) was 80%.

With CC(C)NC(=O)CC[C@H](NS(=O)(=O)c1ccc(-c2ccccc2)cc1)C(=O)O the IC50 [1] was 7.41 µM.

O=C(CC[C@H](NS(=O)(=O)c1ccc(-c2ccccc2)cc1)C(=O)O)NCc1ccc(F)cc1 gave an IC50 [2] of 84 nM, an IC50 [5] of 5.42 µM and an IC50 [1] of 1.16 µM. For the same compound, the viability at 300 µM (A549 [6]) was 85%, the IC50 (Interstitial collagenase) was > 10 µM and the IC50 (Neutrophil collagenase) was 47 nM. For the same compound, the viability at 100 µM (A549 [9]) was 80%.

For O=C(CC[C@H](NS(=O)(=O)c1ccc(-c2ccccc2)cc1)C(=O)O)NCCc1ccccc1, the IC50 [2] was 297 nM, the IC50 [5] was 6.88 µM and the IC50 [1] was 7 µM. For the same compound, the IC50 (Interstitial collagenase) was > 10 µM and the IC50 (Neutrophil collagenase) was 104 nM.

Compound CCCCCNC(=O)CC[C@H](NS(=O)(=O)c1ccc(-c2ccc(Br)cc2)cc1)C(=O)O has an IC50 [1] of 5.49 µM.

Compound CNC(=O)CC[C@H](NS(=O)(=O)c1ccc(-c2ccccc2)cc1)C(=O)O has an IC50 [1] of 38.4 µM.

Compound O=C(CC[C@H](NS(=O)(=O)c1ccc(-c2ccccc2)cc1)C(=O)O)NCc1ccccc1Cl has an IC50 [2] of 63 nM, an IC50 [5] of 1.61 µM and an IC50 [1] of 0.88 µM. The viability at 300 µM (A549 [6]) was 68%, the IC50 (Interstitial collagenase) was > 10 µM and the IC50 (Neutrophil collagenase) was 39 nM. For the same compound, the viability at 100 µM (A549 [9]) was 80%.

CCCCCNC(=O)CC[C@H](NS(=O)(=O)c1ccc(-c2ccccc2)cc1)C(=O)O was tested, and the IC50 [2] was 52.3 nM, the IC50 [5] was 1 µM and the IC50 [1] was 5.72 µM. For the same compound, the viability at 300 µM (A549 [6]) was 61%, the IC50 (Interstitial collagenase) was > 10 µM and the IC50 (Neutrophil collagenase) was 59 nM. The inhibition at 50 µM (A549 [8]) was ≤ 52.1% and the viability at 100 µM (A549 [9]) was 80%.

Work on CCNC(=O)CC[C@H](NS(=O)(=O)c1ccc(-c2ccccc2)cc1)C(=O)O yielded an IC50 [1] of 8.71 µM.
